Reference: patent US7166584B1, “Cholesterol transport gene” (Wisconsin Alumni Research Foundation, priority 1999, dated 2007)

Experiments:
ABC1 [1] = biological target: T1, ABC1 (Mus musculus, UniProt P41233); assay: Cholesterol efflux from 3H-cholesterol-labeled J774 macrophages to apolipoprotein-A1; format: cell-based; set-up: Mouse macrophages (J774) were labeled with ^3H-cholesterol; endogenous in cells; host or cells: J774 mouse macrophages; details: 20 μg/ml human apolipoprotein-A1, indicated concentrations, 24 hours, data only in FIG. 4
Excerpt: A cholesterol efflux assay measures the ability of cells to transfer cholesterol to an extracellular acceptor molecule and is dependent on ABC1 function. A standard cholesterol efflux assay is set out in Marcil et al., Arterioscler. Thromb. Vasc. Biol. 19:159–169, 1999, incorporated by reference herein for all purposes. Prior to this invention, this assay has not been used to identify compounds useful for reducing cholesterol transport from the gut to the blood or lymph, or for reducing LDL or serum cholesterol levels.
In this procedure, cells are loaded with radiolabeled cholesterol by any of several biochemical pathways. Cholesterol efflux of cells is measured after incubation for various times (typically 0 to 24 hours) in the presence of HDL3 or purified ApoAI. Cholesterol efflux is determined as the percentage of total cholesterol in the culture medium after various times of incubation. Increased ABC1 expression levels and/or biological activity are associated with increased efflux while decreased levels of ABC1 expression and/or biological activity are associated with decreased cholesterol efflux.
ABC1 activity can be inhibited genetically or chemically. […] After 24 hours, the medium was collected, centrifuged, and an aliquot collected for radioactivity determination by liquid scintillation counting. […]
Target sequence in this assay (P41233 whole entry): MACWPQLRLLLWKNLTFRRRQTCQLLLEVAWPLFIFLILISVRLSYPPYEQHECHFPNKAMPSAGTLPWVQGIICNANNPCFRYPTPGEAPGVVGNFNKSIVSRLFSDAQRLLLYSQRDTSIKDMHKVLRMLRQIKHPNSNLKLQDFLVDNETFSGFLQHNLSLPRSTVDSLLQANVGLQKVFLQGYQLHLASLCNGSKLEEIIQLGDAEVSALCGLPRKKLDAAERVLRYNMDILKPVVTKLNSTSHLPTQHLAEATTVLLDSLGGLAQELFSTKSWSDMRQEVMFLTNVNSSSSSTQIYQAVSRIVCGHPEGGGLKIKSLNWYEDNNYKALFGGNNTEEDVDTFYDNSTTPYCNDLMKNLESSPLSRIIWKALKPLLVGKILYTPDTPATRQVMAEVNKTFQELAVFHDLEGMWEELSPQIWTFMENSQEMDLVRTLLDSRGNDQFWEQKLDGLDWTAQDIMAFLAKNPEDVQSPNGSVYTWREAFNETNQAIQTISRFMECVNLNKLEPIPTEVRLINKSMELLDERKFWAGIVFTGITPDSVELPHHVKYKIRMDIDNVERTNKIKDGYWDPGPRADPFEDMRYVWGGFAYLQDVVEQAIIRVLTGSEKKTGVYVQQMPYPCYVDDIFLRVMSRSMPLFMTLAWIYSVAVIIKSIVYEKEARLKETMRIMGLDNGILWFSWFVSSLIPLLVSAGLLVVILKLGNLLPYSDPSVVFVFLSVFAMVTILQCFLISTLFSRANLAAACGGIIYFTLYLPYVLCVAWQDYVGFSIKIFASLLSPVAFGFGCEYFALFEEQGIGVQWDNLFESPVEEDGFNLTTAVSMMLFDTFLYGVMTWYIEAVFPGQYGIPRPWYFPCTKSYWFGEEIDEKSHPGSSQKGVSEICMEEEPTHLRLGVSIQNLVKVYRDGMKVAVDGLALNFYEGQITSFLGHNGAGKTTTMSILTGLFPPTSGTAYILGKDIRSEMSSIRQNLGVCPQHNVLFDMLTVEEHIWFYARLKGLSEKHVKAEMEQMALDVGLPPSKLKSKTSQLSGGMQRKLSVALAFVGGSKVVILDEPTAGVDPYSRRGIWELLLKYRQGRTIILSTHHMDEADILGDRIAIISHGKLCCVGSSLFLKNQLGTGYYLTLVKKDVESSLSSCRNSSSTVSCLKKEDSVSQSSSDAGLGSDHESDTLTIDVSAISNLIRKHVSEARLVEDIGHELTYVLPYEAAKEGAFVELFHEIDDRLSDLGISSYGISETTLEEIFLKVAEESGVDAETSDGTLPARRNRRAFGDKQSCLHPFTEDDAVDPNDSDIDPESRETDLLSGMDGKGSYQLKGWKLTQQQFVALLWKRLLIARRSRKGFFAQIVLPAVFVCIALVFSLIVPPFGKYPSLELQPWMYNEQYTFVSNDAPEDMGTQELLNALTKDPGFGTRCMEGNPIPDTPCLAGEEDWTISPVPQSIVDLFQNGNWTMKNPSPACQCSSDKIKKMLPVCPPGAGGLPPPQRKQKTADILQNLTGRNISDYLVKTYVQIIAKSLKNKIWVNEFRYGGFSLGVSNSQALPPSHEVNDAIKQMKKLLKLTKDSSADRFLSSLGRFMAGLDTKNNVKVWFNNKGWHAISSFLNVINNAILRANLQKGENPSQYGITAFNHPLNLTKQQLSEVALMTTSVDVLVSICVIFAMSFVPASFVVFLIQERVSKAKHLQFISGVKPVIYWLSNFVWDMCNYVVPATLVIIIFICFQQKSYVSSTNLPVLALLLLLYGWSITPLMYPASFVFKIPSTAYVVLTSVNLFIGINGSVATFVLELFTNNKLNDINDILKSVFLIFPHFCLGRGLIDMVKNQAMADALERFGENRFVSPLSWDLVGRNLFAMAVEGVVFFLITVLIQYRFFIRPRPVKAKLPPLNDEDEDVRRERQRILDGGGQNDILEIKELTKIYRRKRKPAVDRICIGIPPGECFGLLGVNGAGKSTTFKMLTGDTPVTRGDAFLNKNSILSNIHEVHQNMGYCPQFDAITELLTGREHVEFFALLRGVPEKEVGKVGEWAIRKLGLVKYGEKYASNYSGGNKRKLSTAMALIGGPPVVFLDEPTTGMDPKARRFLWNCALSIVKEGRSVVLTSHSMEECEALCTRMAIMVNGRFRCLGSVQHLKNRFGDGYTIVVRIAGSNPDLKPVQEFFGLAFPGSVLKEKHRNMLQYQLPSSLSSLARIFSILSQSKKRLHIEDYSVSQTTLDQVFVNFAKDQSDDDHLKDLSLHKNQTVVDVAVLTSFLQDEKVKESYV

ABC1 [2] = biological target: T1, ABC1; set-up: host or cells: frog oocytes; details: frog oocytes induced to express ABC1; Becq et al. 1997; cited from earlier work
Target sequence in this assay (P41233 61-2261 limits assumed): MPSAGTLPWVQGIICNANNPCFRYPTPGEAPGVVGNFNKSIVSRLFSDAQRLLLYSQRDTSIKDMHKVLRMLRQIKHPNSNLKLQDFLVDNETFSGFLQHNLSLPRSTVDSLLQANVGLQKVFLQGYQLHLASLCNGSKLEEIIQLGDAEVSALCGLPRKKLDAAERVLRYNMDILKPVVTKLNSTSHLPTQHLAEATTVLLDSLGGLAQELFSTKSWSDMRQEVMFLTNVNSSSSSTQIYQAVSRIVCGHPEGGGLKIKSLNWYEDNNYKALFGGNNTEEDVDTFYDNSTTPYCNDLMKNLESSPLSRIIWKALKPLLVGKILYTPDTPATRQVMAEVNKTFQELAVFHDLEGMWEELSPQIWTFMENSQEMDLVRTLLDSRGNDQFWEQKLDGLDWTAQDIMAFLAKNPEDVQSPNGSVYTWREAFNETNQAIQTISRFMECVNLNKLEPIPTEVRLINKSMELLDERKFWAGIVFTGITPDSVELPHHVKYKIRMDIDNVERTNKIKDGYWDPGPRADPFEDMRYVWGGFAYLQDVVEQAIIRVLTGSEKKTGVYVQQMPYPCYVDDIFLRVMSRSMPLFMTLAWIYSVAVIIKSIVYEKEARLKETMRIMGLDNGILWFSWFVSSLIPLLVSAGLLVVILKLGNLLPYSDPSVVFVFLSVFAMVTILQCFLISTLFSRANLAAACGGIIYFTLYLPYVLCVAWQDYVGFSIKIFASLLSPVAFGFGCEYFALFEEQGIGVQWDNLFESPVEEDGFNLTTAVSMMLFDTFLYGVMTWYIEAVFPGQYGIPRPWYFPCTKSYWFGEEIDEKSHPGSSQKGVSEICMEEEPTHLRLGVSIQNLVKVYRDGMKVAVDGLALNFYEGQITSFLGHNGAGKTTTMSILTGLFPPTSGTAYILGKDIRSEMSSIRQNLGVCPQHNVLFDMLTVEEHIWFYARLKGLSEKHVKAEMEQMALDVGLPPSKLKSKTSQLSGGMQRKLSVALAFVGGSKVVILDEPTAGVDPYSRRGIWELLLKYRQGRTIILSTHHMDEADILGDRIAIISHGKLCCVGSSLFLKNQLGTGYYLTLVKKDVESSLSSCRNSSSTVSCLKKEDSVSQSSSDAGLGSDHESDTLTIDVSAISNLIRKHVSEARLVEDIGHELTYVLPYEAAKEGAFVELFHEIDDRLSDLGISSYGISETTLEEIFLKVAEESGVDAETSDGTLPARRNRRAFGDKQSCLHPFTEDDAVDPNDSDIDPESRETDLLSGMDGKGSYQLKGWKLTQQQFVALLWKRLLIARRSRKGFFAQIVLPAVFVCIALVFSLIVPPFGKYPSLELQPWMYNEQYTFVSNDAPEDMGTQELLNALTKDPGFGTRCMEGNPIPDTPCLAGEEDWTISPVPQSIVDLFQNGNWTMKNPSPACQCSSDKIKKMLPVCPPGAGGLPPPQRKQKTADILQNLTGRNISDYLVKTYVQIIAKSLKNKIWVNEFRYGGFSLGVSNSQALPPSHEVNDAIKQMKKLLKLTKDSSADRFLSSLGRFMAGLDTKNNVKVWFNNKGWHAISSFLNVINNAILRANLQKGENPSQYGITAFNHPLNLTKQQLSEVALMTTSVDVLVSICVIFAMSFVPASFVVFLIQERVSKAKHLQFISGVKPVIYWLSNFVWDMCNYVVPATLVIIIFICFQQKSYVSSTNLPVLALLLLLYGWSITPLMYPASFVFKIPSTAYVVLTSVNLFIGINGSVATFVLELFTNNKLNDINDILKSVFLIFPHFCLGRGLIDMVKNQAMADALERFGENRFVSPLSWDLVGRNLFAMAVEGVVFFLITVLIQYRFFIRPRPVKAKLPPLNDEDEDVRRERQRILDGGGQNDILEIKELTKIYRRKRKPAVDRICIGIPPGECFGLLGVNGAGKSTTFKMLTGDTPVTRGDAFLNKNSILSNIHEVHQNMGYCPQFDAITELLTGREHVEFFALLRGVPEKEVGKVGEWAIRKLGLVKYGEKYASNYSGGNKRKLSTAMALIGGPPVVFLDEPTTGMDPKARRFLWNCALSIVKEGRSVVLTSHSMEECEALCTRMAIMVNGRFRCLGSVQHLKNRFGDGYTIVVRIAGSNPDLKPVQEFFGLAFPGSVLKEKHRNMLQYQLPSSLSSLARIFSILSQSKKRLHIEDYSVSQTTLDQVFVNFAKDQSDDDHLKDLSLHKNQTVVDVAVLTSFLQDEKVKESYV

Inhibition of ABC1 activity (cholesterol efflux) (ABC1 [1]): inhibit ABC1 activity
SMILES: COc1ccc(Cl)cc1C(=O)NCCc1ccc(S(=O)(=O)NC(=O)NC2CCCCC2)cc1 [Glyburide]
Inhibition of iodide transport (ABC1 [2]): inhibit iodide transport
